From US20180298405A1, “METHODS AND COMPOSITIONS TO INCREASE HUMAN SOMATIC CELL NUCLEAR TRANSFER (SCNT) EFFICIENCY BY REMOVING HISTONE H3-LYSINE TRIMETHYLATION, AND DERIVATION OF HUMAN NT-ESC” (CHILDREN'S MEDICAL CENTER CORPORATION, priority 2015, published 2018)

Tested on: reprogramming resistant regions (RRRs) / ZGA genes
Assay: RNA-seq of late 8-cell human SCNT embryos with or without KDM4A mRNA injection (ZGA of RRRs, KDM4A-responsive genes)
Assay type: cell-based
Conditions: 8-cell embryos
Source text: A sliding window (size 20 kb, step size 10 kb) was used to assess the genome-wide expression level of 4-cell and 8-cell human embryos. For each window, the expression level was quantified with normalized RPM (reads per millions of uniquely mapped reads). […] These activated regions were classed into three groups based on their expression differences in human SCNT and IVF 8-cell embryos.
The SCNT embryos used for ZGA analysis were generated using oocytes donated by a single healthy person (#64) and dermal fibroblast cells from an AMD patient (DFB-8). SCNT and IVF embryos were cultured up to late 8-cell stage, when the compaction of blastomeres is initiated, then they were treated briefly with acid Tyrode solution to remove zona pellucida. To prepare for the 8-cell SCNT embryo, oocytes from a single oocyte donor, and skin fibroblast cells from a single somatic nuclear donor were used. All the procedures are the same as described in the “Human SCNT procedure and KMD4A mRNA injection” section. Only embryos that reached the late 8-cell stage synchronically 74 hours post activation were collected and used for this experiment.
For preparation of the control IVF embryos, several donated early 8-cell stage IVF embryos were thawed and cultured for 5-7 hours to allow them to reach late 8-cell stage before being processed. After removal of the zona pellucida, the denuded embryos were washed 3 times in PBS, loaded into RNAse and DNAse free PCR tubes, spin downed, and snap frozen in liquid nitrogen. Then, they were kept at −80° C. until use. As controls, dermal fibroblast cells of somatic nuclear donors were also prepared. Those fibroblast cells were cultured in a 25 cm^2 flask in DMEM 10% FBS, and approximately 10,000 cells/donor were collected, snap frozen, and stored at −80° C. until use.
Five 8-cell embryos for each group were directly lysed and used for cDNA synthesis using SMART-Seq v4 Ultra Low Input RNA Kit (Clontech). For MEF donor, 10 ng total RNA was used for cDNA synthesis using SMART-Seq v4 Ultra Low Input RNA Kit. After amplification, the cDNA samples were fragmented using Covaris sonicator M220 to an average size of 150 bp (Covaris). Sequencing libraries were made with the fragmented DNA using NEBNext Ultra DNA Library Prep Kit for Illumina according to manufacturer's instruction (New England Biolabs) with different barcodes. For each RNA-seq analysis of hESCs, 1 μg total RNA was used for mRNA purification. Barcoded RNA-seq libraries were generated using NEBNext Ultra Directional RNA Library Prep Kit for Illumina (New England Biolabs). Single end 50 bp sequencing was performed on a HiSeq 2500 sequencer (Illumina). Sequencing reads were mapped to the human genome (hg19) with Tophat2. All programs were performed with default settings (unless otherwise specified). At least 22 million uniquely mapped reads were obtained for each sequencing library, and subsequently assembled into transcripts guided by the reference annotation (Refseq gene models) with Cufflinks v2.0.2. Expression level of each gene was quantified with normalized FPKM (fragments per kilobase of exon per million mapped fragments). Statistical analyses were performed with R (available at: “www.r-project.org/”). Independent 2 group Wilcoxon rank sum tests were used to compare distributions using the wilcox.test function in R. Pearson's r coefficient was calculated using the cor function with default parameters. The hierarchical clustering analysis of the global gene expression pattern in different samples was carried out using heatmap.2 function (gplots package) in R.

KDM4A mRNA: in vitro transcribed mRNA of full length human KDM4A/JHDM3A cDNA, an H3K9me3 demethylase (SEQ ID NO: 1)
NDUFAF2 Fold Change (log2) [KDM4A SCNT/Control SCNT]: 1.16 log2
NMNAT1 Fold Change (log2) [KDM4A SCNT/Control SCNT]: 1.28 log2
NOC4L Fold Change (log2) [KDM4A SCNT/Control SCNT]: 1.15 log2
NOP58 Fold Change (log2) [KDM4A SCNT/Control SCNT]: 1.4 log2
NUDT9 Fold Change (log2) [KDM4A SCNT/Control SCNT]: 1.82 log2
PAGE5 Fold Change (log2) [KDM4A SCNT/Control SCNT]: 1.24 log2
PDCD11 Fold Change (log2) [KDM4A SCNT/Control SCNT]: 1.11 log2
PDE4DIP Fold Change (log2) [KDM4A SCNT/Control SCNT]: 1.79 log2
PHOSPHO1 Fold Change (log2) [KDM4A SCNT/Control SCNT]: 1.46 log2
PIK3R4 Fold Change (log2) [KDM4A SCNT/Control SCNT]: 1.58 log2
PLBD1 Fold Change (log2) [KDM4A SCNT/Control SCNT]: 1.69 log2
PLD2 Fold Change (log2) [KDM4A SCNT/Control SCNT]: 1.2 log2
PLVAP Fold Change (log2) [KDM4A SCNT/Control SCNT]: 1.63 log2
POLR3K Fold Change (log2) [KDM4A SCNT/Control SCNT]: 1.34 log2
POTEM Fold Change (log2) [KDM4A SCNT/Control SCNT]: 1.56 log2
PPM1N Fold Change (log2) [KDM4A SCNT/Control SCNT]: 1.68 log2
PPP2CB Fold Change (log2) [KDM4A SCNT/Control SCNT]: 2.17 log2
PRAMEF3 Fold Change (log2) [KDM4A SCNT/Control SCNT]: 2.4 log2
PRAMEF4 Fold Change (log2) [KDM4A SCNT/Control SCNT]: 1.02 log2
PRAMEF6 Fold Change (log2) [KDM4A SCNT/Control SCNT]: 1.08 log2
PRAMEF10 Fold Change (log2) [KDM4A SCNT/Control SCNT]: 1.05 log2
PRAMEF11 Fold Change (log2) [KDM4A SCNT/Control SCNT]: 1.31 log2
PRAMEF17 Fold Change (log2) [KDM4A SCNT/Control SCNT]: 1.44 log2
PRPF39 Fold Change (log2) [KDM4A SCNT/Control SCNT]: 1.4 log2
PTPN22 Fold Change (log2) [KDM4A SCNT/Control SCNT]: 2.57 log2
RAB9A Fold Change (log2) [KDM4A SCNT/Control SCNT]: 1.39 log2
RASA2 Fold Change (log2) [KDM4A SCNT/Control SCNT]: 1.36 log2
RFK Fold Change (log2) [KDM4A SCNT/Control SCNT]: 1.29 log2
RNU11 Fold Change (log2) [KDM4A SCNT/Control SCNT]: 5.27 log2
RP2 Fold Change (log2) [KDM4A SCNT/Control SCNT]: 1.82 log2
RPF2 Fold Change (log2) [KDM4A SCNT/Control SCNT]: 1.46 log2
RPS6KB2 Fold Change (log2) [KDM4A SCNT/Control SCNT]: 1.81 log2
SAMD8 Fold Change (log2) [KDM4A SCNT/Control SCNT]: 1.14 log2
SCO1 Fold Change (log2) [KDM4A SCNT/Control SCNT]: 1.15 log2
SEPX1 Fold Change (log2) [KDM4A SCNT/Control SCNT]: 1.36 log2
SERTAD1 Fold Change (log2) [KDM4A SCNT/Control SCNT]: 1.12 log2
SFTPD Fold Change (log2) [KDM4A SCNT/Control SCNT]: 2.45 log2
SGCG Fold Change (log2) [KDM4A SCNT/Control SCNT]: 2.73 log2
SGPP1 Fold Change (log2) [KDM4A SCNT/Control SCNT]: 1.41 log2
SHFM1 Fold Change (log2) [KDM4A SCNT/Control SCNT]: 1.73 log2
SIAH1 Fold Change (log2) [KDM4A SCNT/Control SCNT]: 1.7 log2
SNAPC1 Fold Change (log2) [KDM4A SCNT/Control SCNT]: 1.71 log2
SNAR-C3 Fold Change (log2) [KDM4A SCNT/Control SCNT]: 1.85 log2
SNAR-E Fold Change (log2) [KDM4A SCNT/Control SCNT]: 1.72 log2
SNHG9 Fold Change (log2) [KDM4A SCNT/Control SCNT]: 1.3 log2
SNHG12 Fold Change (log2) [KDM4A SCNT/Control SCNT]: 1.42 log2
SPINK7 Fold Change (log2) [KDM4A SCNT/Control SCNT]: 5.38 log2
SRA1 Fold Change (log2) [KDM4A SCNT/Control SCNT]: 1.23 log2
SSX3 Fold Change (log2) [KDM4A SCNT/Control SCNT]: 1.1 log2
STAG3L2 Fold Change (log2) [KDM4A SCNT/Control SCNT]: 1.35 log2
STAG3L4 Fold Change (log2) [KDM4A SCNT/Control SCNT]: 1.17 log2
STAP2 Fold Change (log2) [KDM4A SCNT/Control SCNT]: 1.25 log2
SUZ12P Fold Change (log2) [KDM4A SCNT/Control SCNT]: 1.68 log2
TAC1 Fold Change (log2) [KDM4A SCNT/Control SCNT]: 1.38 log2
TCEANC2 Fold Change (log2) [KDM4A SCNT/Control SCNT]: 1.13 log2
TCN2 Fold Change (log2) [KDM4A SCNT/Control SCNT]: 1.4 log2
TEN1 Fold Change (log2) [KDM4A SCNT/Control SCNT]: 1.66 log2
THOC5 Fold Change (log2) [KDM4A SCNT/Control SCNT]: 1.46 log2
TIMM10 Fold Change (log2) [KDM4A SCNT/Control SCNT]: 1.41 log2
TMEM41B Fold Change (log2) [KDM4A SCNT/Control SCNT]: 1.14 log2
TMEM92 Fold Change (log2) [KDM4A SCNT/Control SCNT]: 1.42 log2
TMEM159 Fold Change (log2) [KDM4A SCNT/Control SCNT]: 1.17 log2
TRIM39-RPP21 Fold Change (log2) [KDM4A SCNT/Control SCNT]: 1.09 log2
TRIML2 Fold Change (log2) [KDM4A SCNT/Control SCNT]: 1.55 log2
TSEN34 Fold Change (log2) [KDM4A SCNT/Control SCNT]: 1.28 log2
TTC27 Fold Change (log2) [KDM4A SCNT/Control SCNT]: 1.72 log2
TTC28-AS1 Fold Change (log2) [KDM4A SCNT/Control SCNT]: 1.74 log2
UBTFL1 Fold Change (log2) [KDM4A SCNT/Control SCNT]: 1.8 log2
UTP3 Fold Change (log2) [KDM4A SCNT/Control SCNT]: 1.08 log2
UTP23 Fold Change (log2) [KDM4A SCNT/Control SCNT]: 1.35 log2
UTS2 Fold Change (log2) [KDM4A SCNT/Control SCNT]: 1.28 log2
VAMP1 Fold Change (log2) [KDM4A SCNT/Control SCNT]: 2.23 log2
VCX2 Fold Change (log2) [KDM4A SCNT/Control SCNT]: 1.77 log2
VCX Fold Change (log2) [KDM4A SCNT/Control SCNT]: 1.72 log2
VPS54 Fold Change (log2) [KDM4A SCNT/Control SCNT]: 2.28 log2
WDR77 Fold Change (log2) [KDM4A SCNT/Control SCNT]: 1.18 log2
XAGE5 Fold Change (log2) [KDM4A SCNT/Control SCNT]: 1.07 log2
ZCCHC10 Fold Change (log2) [KDM4A SCNT/Control SCNT]: 1.22 log2
ZFYVE19 Fold Change (log2) [KDM4A SCNT/Control SCNT]: 1.49 log2
ZNF92 Fold Change (log2) [KDM4A SCNT/Control SCNT]: 1.03 log2
ZNF100 Fold Change (log2) [KDM4A SCNT/Control SCNT]: 2.53 log2
ZNF174 Fold Change (log2) [KDM4A SCNT/Control SCNT]: 1.24 log2
ZNF208 Fold Change (log2) [KDM4A SCNT/Control SCNT]: 1.57 log2
ZNF254 Fold Change (log2) [KDM4A SCNT/Control SCNT]: 1.37 log2
ZNF273 Fold Change (log2) [KDM4A SCNT/Control SCNT]: 1.11 log2
ZNF280A Fold Change (log2) [KDM4A SCNT/Control SCNT]: 1.34 log2
ZNF326 Fold Change (log2) [KDM4A SCNT/Control SCNT]: 1.37 log2
ZNF345 Fold Change (log2) [KDM4A SCNT/Control SCNT]: 1.46 log2
ZNF486 Fold Change (log2) [KDM4A SCNT/Control SCNT]: 1.74 log2
ZNF487P Fold Change (log2) [KDM4A SCNT/Control SCNT]: 1.2 log2
ZNF625-ZNF20 Fold Change (log2) [KDM4A SCNT/Control SCNT]: 2.32 log2
ZNF625 Fold Change (log2) [KDM4A SCNT/Control SCNT]: 1.87 log2
ZNF669 Fold Change (log2) [KDM4A SCNT/Control SCNT]: 1.08 log2
ZNF675 Fold Change (log2) [KDM4A SCNT/Control SCNT]: 1.87 log2
ZNF676 Fold Change (log2) [KDM4A SCNT/Control SCNT]: 1.29 log2
ZNF679 Fold Change (log2) [KDM4A SCNT/Control SCNT]: 2.13 log2
ZNF680 Fold Change (log2) [KDM4A SCNT/Control SCNT]: 1.18 log2
ZNF684 Fold Change (log2) [KDM4A SCNT/Control SCNT]: 1.53 log2
ZNF700 Fold Change (log2) [KDM4A SCNT/Control SCNT]: 1.49 log2
ZNF724P Fold Change (log2) [KDM4A SCNT/Control SCNT]: 1.04 log2
ZNF729 Fold Change (log2) [KDM4A SCNT/Control SCNT]: 1.75 log2
ZNF735 Fold Change (log2) [KDM4A SCNT/Control SCNT]: 1.24 log2
ZNF789 Fold Change (log2) [KDM4A SCNT/Control SCNT]: 1.28 log2
ZNF791 Fold Change (log2) [KDM4A SCNT/Control SCNT]: 1.38 log2
